Patent publication US20090311198A1, “Perhydrolase for Tooth Whitening” (priority 2006, published 2009)
Marks after values point to notes of the source that are not given here.

How the values were obtained:
[1] = dilute 1% aqueous solution, cited from earlier work
[2] = aqueous 1% (by weight) solution; ambient to oral range temperatures; cited from earlier work
[3] = Intrinsic stain removal (tooth whitening) on human enamel specimens, CIELAB colour readings; conditions: for Total Change (ΔE) in Intrinsic Stain Scores: 20 ml, 30 minute intervals, mean ± SD, n = 8; for Dose-response of tooth whitening (ΔE): 0.20% to 0.01% solutions
From the text: In the following Examples, human permanent teeth with natural intrinsic stains were obtained from oral surgeons. Selection of appropriate teeth was based on the presence of intrinsic stain after removal of exogenous stains using methods known in the art involving use of rubber cup polishing with an aqueous pumice slurry. A VITA® dental shade guide was used as a reference for tooth selection. Only specimens with a shade score of A3 or darker after drying were used in these experiments. The test specimens were comprised of cylinders of human enamel 3 mm in diameter mounted in a 10-mm-diameter black acrylic base. The circular pieces of human enamel were cut using a 3-mm diamond core drill (Continental). In order to cut the enamel, the human teeth were first mounted in 2-cm square blocks of self-curing dental acrylic with the labial surface exposed. Each block was then clamped into a small vise and immersed in a container of water to prevent the enamel from burning during the cutting process. Each immersed tooth was positioned directly under and perpendicular to the diamond core drill bit mounted on the end of an electric drill press. At high speed, the diamond core drill was lowered onto the tooth and gentle pressure was applied as the bit cut through the enamel and dentin. The 3-mm piece of cut enamel was then removed from the end of the diamond core drill and embedded with the aid of a circular mold into black, self-curing dental acrylic, providing circular blocks 10 mm in diameter. This was done in such a manner that the areas of tooth substance exposed by the drilling process were sealed by the acrylic, while the 3-mm surface enamel was left exposed. The finished tooth specimens were examined under a dissecting microscope. Specimens with imperfections were discarded. Acceptable specimens were thoroughly rinsed with distilled water, and refrigerated in a humidor until use.
In these experiments, stain on the teeth was measured using the following method. The amount of the intrinsic stain within the teeth was measured by taking color readings with a Minolta CM-503i Spectrophotometer with diffuse illumination/8° viewing angle and 3 mm aperture. Measurements over the entire visible color spectrum were obtained using the CIELAB (Commission Internationale de L'Eclairage, Recommendations on Uniform Color Spaces. Color Difference Equations. Psychometric color Terms, Suppl. 2 to CIE publication 15 (E-13.1) 1971/(TC-1.3), 1978, Paris: Bureau Central de la CIE, 1978) color scale. This scale quantifies color according to 3 parameters, L* (lightness-darkness value), a* (red-green chroma), and b* (yellow-blue chroma). In order to obtain reproducible readings, the enamel specimens were allowed to air-dry at room temperature for 30 minutes before color measurements were taken. When the specimens were exposed to air, the teeth became whiter as they dry within the first few minutes and the color parameters change dramatically, but stabilized after 30 minutes.
Measurements were obtained by aligning the center of the circular 3-mm segment of enamel directly over the 3-mm-diameter targeting aperture of the Minolta spectrophotometer, which enabled accurate positioning of the specimens for each test. An average of 3 color readings using the L*a*b* scale were taken for each specimen.
In this Example, methods of treating the tooth samples are described. Before treatment, the baseline L*a*b* color scores of the tooth specimens were determined and used to stratify the teeth samples into balanced groups of 8 specimens each. For testing, each tooth specimen was immersed in 20 ml of the respective test solution for 30 minutes. The test solutions were stirred at 60 rpm with a mechanical stirrer for the duration of the exposure.
Following each 30-minute treatment period, the specimens were rinsed and then placed back into fresh test solution. […] As a control group, 8 teeth were similarly treated in distilled water. […]

[4] = Hydrolysis of PAA standards in buffer (ABTS assay standard curve); type: physicochemical; conditions: B(OH)3 buffer; standard concentrations in B(OH)3, pH 8.5 buffer
Method: The standard curve was prepared as described below. A working stock of PAA was prepared by diluting 32% 10^4-fold to 0.4 mM in water (note: stock contained acetic acid). […] At ambient temperature, 50 to 100 uL of standard PAA dilution were added to 1 mL of the ABTS reagent. The solution was mixed well and incubated at ambient temperature for 3 minutes. The absorbance at 420 nm (or another chosen wavelength) was then measured.

CC(=O)OO [Peracetic Acid, peracetic acid]
Time to substantial decomposition ([1]; ambient temperatures): ≥ 30 days
Storage stability ([1]; storage at 3° C.): significantly improves stability
Whitening effect on teeth compared with 30% (by weight) aqueous hydrogen peroxide [2]: faster and superior whitening effect
Total Change (ΔE) in Intrinsic Stain Scores ([3]; 0.01% in 100 mmolar phosphate buffer, Hour 1): 2.98 ± 2.57^b,c,d
Total Change (ΔE) in Intrinsic Stain Scores ([3]; 0.01% in 100 mmolar phosphate buffer, Hour 2): 4.06 ± 2.51^b
Total Change (ΔE) in Intrinsic Stain Scores ([3]; 0.01% in 100 mmolar phosphate buffer, Hour 4): 4.09 ± 2.33^b
Total Change (ΔE) in Intrinsic Stain Scores ([3]; 0.01% in 100 mmolar phosphate buffer, Hour 8): 5.11 ± 2.71^a
Total Change (ΔE) in Intrinsic Stain Scores ([3]; 0.01% in 100 mmolar phosphate buffer, Hour 10): 5.88 ± 2.55^a
Total Change (ΔE) in Intrinsic Stain Scores ([3]; 0.01% in 100 mmolar phosphate buffer, Hour 12): 6.79 ± 3.23^a
Total Change (ΔE) in Intrinsic Stain Scores ([3]; 0.01% in 100 mmolar phosphate buffer, Hour 14): 7.13 ± 3.14^a
Total Change (ΔE) in Intrinsic Stain Scores ([3]; 0.01% in 100 mmolar phosphate buffer, Hour 16): 7.57 ± 3.05^a
Total Change (ΔE) in Intrinsic Stain Scores ([3]; 0.05% in 100 mmolar phosphate buffer, Hour 1): 3.41 ± 2.19^b,c,d
Total Change (ΔE) in Intrinsic Stain Scores ([3]; 0.05% in 100 mmolar phosphate buffer, Hour 2): 3.83 ± 1.81^b
Total Change (ΔE) in Intrinsic Stain Scores ([3]; 0.05% in 100 mmolar phosphate buffer, Hour 4): 4.72 ± 1.67^b
Total Change (ΔE) in Intrinsic Stain Scores ([3]; 0.05% in 100 mmolar phosphate buffer, Hour 8): 5.04 ± 1.72^a
Total Change (ΔE) in Intrinsic Stain Scores ([3]; 0.05% in 100 mmolar phosphate buffer, Hour 10): 6.08 ± 1.25^a
Total Change (ΔE) in Intrinsic Stain Scores ([3]; 0.05% in 100 mmolar phosphate buffer, Hour 12): 6.55 ± 1.79^a
Total Change (ΔE) in Intrinsic Stain Scores ([3]; 0.05% in 100 mmolar phosphate buffer, Hour 14): 6.82 ± 1.91^a
Total Change (ΔE) in Intrinsic Stain Scores ([3]; 0.05% in 100 mmolar phosphate buffer, Hour 16): 7.72 ± 2.15^a
Total Change (ΔE) in Intrinsic Stain Scores ([3]; 0.10% in 100 mmolar phosphate buffer, Hour 1): 5.60 ± 2.69^a,b
Total Change (ΔE) in Intrinsic Stain Scores ([3]; 0.10% in 100 mmolar phosphate buffer, Hour 2): 5.38 ± 1.75^a,b
Total Change (ΔE) in Intrinsic Stain Scores ([3]; 0.10% in 100 mmolar phosphate buffer, Hour 4): 6.09 ± 2.52^a,b
Total Change (ΔE) in Intrinsic Stain Scores ([3]; 0.10% in 100 mmolar phosphate buffer, Hour 8): 6.58 ± 2.94^a
Total Change (ΔE) in Intrinsic Stain Scores ([3]; 0.10% in 100 mmolar phosphate buffer, Hour 10): 7.05 ± 3.31^a
Total Change (ΔE) in Intrinsic Stain Scores ([3]; 0.10% in 100 mmolar phosphate buffer, Hour 12): 7.89 ± 3.47^a
Total Change (ΔE) in Intrinsic Stain Scores ([3]; 0.10% in 100 mmolar phosphate buffer, Hour 14): 8.71 ± 4.66^a
Total Change (ΔE) in Intrinsic Stain Scores ([3]; 0.10% in 100 mmolar phosphate buffer, Hour 16): 9.08 ± 4.24^a
Total Change (ΔE) in Intrinsic Stain Scores ([3]; 0.20% in 100 mmolar phosphate buffer, Hour 1): 5.31 ± 1.75^a,b,c
Total Change (ΔE) in Intrinsic Stain Scores ([3]; 0.20% in 100 mmolar phosphate buffer, Hour 2): 6.60 ± 2.37^a
Total Change (ΔE) in Intrinsic Stain Scores ([3]; 0.20% in 100 mmolar phosphate buffer, Hour 4): 7.37 ± 2.85^a
Total Change (ΔE) in Intrinsic Stain Scores ([3]; 0.20% in 100 mmolar phosphate buffer, Hour 8): 7.54 ± 2.34^a
Total Change (ΔE) in Intrinsic Stain Scores ([3]; 0.20% in 100 mmolar phosphate buffer, Hour 10): 7.72 ± 3.12^a
Total Change (ΔE) in Intrinsic Stain Scores ([3]; 0.20% in 100 mmolar phosphate buffer, Hour 12): 8.53 ± 3.65^a
Total Change (ΔE) in Intrinsic Stain Scores ([3]; 0.20% in 100 mmolar phosphate buffer, Hour 14): 9.08 ± 3.81^a
Total Change (ΔE) in Intrinsic Stain Scores ([3]; 0.20% in 100 mmolar phosphate buffer, Hour 16): 9.34 ± 4.10^a
Tooth whitening (ΔE) compared with hydrogen peroxide positive control ([3]; after 8 hours, ANOVA and SNK test, p < 0.05): statistically equivalent to the hydrogen peroxide positive control
Dose-response of tooth whitening (ΔE) ([3]; during the first four hours of treatment): significant dose-response
Dose-response of tooth whitening (ΔE) ([3]; up to 16 hours of treatment): numerical dose-response effect
half-life [4]: 25 min

OO [H2O2, hydrogen peroxide]
Total Change (ΔE) in Intrinsic Stain Scores ([3]; 3% (positive control), Hour 1): 6.21 ± 3.46^a
Total Change (ΔE) in Intrinsic Stain Scores ([3]; 3% (positive control), Hour 2): 7.15 ± 2.96^a
Total Change (ΔE) in Intrinsic Stain Scores ([3]; 3% (positive control), Hour 4): 7.28 ± 2.75^a
Total Change (ΔE) in Intrinsic Stain Scores ([3]; 3% (positive control), Hour 8): 7.48 ± 2.95^a
Total Change (ΔE) in Intrinsic Stain Scores ([3]; 3% (positive control), Hour 10): 7.77 ± 3.34^a
Total Change (ΔE) in Intrinsic Stain Scores ([3]; 3% (positive control), Hour 12): 9.00 ± 4.07^a
Total Change (ΔE) in Intrinsic Stain Scores ([3]; 3% (positive control), Hour 14): 9.68 ± 3.85^a
Total Change (ΔE) in Intrinsic Stain Scores ([3]; 3% (positive control), Hour 16): 10.68 ± 3.51^a
